The text below walks through data of publication PMC10303271, “Synthesis and Receptor Binding Studies of α5 GABAAR Selective Novel Imidazodiazepines Targeted for Psychiatric and Cognitive Disorders” (Molecules, 2023).

The structures appear in SMILES notation.

One may read the Ki as the dissociation constant of the complex between target and ligand, obtained from inhibition or displacement.

In one assay the target is BZP rat brain site. As to the kind of experiment: PDSP binding at BZP rat brain site. Conditions: for Ki: N = 2, read-out: Binding Affinity BZR Secondary Screening Ki; for Ki / Binding Affinity BZR % Inhibition (Primary): rat brain; for Binding Affinity BZR % Inhibition (Primary): at 10,000 nM, N = 5; for BZP Rat Brain Site, PDSP raw data, mean: primary binding, 10,000 nM, last figure of the line = mean of the 4 before it. The procedure: The BZR binding affinity of the test compounds was also measured using rat brain BzR. […] The efficacy of imidazodiazepines on the benzodiazepine receptor depends on various factors, including the specific subtype of the receptor they bind to, their chemical structure, and the dose.
(§1) The NIMH PDSP assay protocol book [https://kidbdev.med.unc.edu/databases/PDSP%20Protocols%20II%202013-03-28.pdf accessed on 23 April 2023]. describes the protocols for primary and secondary radio-ligand binding assays. These assays were carried out in a final volume of 125 µL per well in the appropriate binding buffer.
(§2) The binding of a ligand to a receptor, ion channel, or transporter was determined in the […] of 10 µM of the appropriate reference compound. […] Plates were incubated in the dark for 90 min at rt, and the reactions were stopped by vacuum filtration onto 0.3% polyethyleneimine (PEI) soaked 96-well filter mats using a 96-well Filtermateharvester. This was followed by three washes with cold PBS buffer. Radioactivity was then counted on a Microbeta counter. Nonlinear regression was used to analyze the data with N = 6 replicates.

For a further assay, the target named is T1, Alpha1B (Homo sapiens, UniProt P35368).
T1 construct: purchased NIMH Psychoactive Drug Screening Program (PDSP)
T1 sequence (P35368 1-520): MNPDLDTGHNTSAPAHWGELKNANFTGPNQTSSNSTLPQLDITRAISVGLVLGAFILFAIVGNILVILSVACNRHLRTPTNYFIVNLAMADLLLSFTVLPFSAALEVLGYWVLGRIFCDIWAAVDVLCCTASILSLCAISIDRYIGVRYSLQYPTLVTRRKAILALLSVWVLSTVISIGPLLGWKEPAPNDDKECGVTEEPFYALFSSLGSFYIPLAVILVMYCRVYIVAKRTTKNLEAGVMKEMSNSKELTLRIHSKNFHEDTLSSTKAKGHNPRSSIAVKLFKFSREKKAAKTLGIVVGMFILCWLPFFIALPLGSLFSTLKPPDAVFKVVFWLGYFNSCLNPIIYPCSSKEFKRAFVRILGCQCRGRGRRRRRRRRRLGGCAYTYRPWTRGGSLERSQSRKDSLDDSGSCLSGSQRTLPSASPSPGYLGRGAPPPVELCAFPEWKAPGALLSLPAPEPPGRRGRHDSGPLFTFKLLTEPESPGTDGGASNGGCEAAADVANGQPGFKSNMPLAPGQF
As to the kind of experiment: PDSP primary binding Alpha1B. The note with it: 1.5 h; primary binding, 10,000 nM; last figure of the line = mean of the 4 before it; read-out: Alpha1B, PDSP raw data, mean. The procedure: (§3) To determine if any off-target receptor-binding effects are present, all the novel ligands were sent to the National Institute of Mental Health (NIMH), Psychoactive Drug Screening Program (PDSP). The ligands were screened over a panel of 47 receptors, ion channels, and transporters to determine any other possible interactions with […]. The hERG-binding was also determined. […] No binding of the test compounds to calcium channels was observed. […] It is necessary to screen the compounds for hERG-binding during the early process of drug discovery. The unintentional binding of many drugs to hERG can cause blockade of hERG K+ channels in the heart, which can cause many side effects including cardiac arrhythmias and sudden death. […] All of the α5 imidazodiazepines were tested for hERG-binding.
as §1, §2

For the next assay, the target named is T2, Alpha1D (Homo sapiens, UniProt P25100).
T2 construct: purchased NIMH Psychoactive Drug Screening Program (PDSP)
T2 sequence (P25100 1-572): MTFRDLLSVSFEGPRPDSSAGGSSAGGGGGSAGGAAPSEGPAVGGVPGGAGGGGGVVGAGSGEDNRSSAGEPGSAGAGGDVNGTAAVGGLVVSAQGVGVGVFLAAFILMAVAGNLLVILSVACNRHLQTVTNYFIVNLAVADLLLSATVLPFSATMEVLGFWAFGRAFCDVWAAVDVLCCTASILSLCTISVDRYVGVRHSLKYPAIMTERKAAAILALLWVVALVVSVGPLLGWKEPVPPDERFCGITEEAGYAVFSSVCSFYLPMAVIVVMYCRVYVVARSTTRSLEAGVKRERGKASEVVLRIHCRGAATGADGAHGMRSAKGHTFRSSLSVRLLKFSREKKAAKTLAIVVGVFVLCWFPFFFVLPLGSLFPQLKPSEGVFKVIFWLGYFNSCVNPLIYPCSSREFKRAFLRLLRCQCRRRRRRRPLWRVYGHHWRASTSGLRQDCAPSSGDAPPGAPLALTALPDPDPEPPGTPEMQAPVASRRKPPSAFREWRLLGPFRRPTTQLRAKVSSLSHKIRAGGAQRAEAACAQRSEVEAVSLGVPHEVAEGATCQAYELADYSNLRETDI
Nature of the assay: PDSP primary binding Alpha1D. The note with it: 1.5 h; primary binding, 10,000 nM; last figure of the line = mean of the 4 before it; read-out: Alpha1D, PDSP raw data, mean. As for the experimental part: as §3, §1, §2

Another assay deals with T3, D3 (Homo sapiens, UniProt P35462).
T3 construct: purchased NIMH Psychoactive Drug Screening Program (PDSP)
Nature of the assay: PDSP primary binding D3. Conditions: 1.5 h; primary binding, 10,000 nM; last figure of the line = mean of the 4 before it; read-out: D3, PDSP raw data, mean. As for the experimental part: as §3, §1, §2

The target of another assay is T4, M1 (Homo sapiens, UniProt P11229).
T4 construct: purchased NIMH Psychoactive Drug Screening Program (PDSP)
T4 sequence (P11229 1-460): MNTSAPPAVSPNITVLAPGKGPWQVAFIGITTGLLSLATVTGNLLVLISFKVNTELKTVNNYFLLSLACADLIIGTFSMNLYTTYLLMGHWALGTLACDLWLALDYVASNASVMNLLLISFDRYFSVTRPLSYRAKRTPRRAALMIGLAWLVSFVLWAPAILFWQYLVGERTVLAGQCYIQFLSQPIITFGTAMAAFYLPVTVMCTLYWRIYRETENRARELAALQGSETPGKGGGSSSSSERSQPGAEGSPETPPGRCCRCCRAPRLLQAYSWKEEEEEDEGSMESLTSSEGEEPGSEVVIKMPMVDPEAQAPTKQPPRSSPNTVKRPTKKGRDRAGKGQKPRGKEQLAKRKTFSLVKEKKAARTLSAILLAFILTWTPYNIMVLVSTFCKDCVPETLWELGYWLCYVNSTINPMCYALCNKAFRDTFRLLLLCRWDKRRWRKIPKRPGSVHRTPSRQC
Nature of the assay: PDSP primary binding M1. Conditions: primary binding, 10,000 nM; last figure of the line = mean of the 4 before it; read-out: M1, PDSP raw data, mean. As for the experimental part: as §3, §1, §2

T3 sequence (P35462 whole entry): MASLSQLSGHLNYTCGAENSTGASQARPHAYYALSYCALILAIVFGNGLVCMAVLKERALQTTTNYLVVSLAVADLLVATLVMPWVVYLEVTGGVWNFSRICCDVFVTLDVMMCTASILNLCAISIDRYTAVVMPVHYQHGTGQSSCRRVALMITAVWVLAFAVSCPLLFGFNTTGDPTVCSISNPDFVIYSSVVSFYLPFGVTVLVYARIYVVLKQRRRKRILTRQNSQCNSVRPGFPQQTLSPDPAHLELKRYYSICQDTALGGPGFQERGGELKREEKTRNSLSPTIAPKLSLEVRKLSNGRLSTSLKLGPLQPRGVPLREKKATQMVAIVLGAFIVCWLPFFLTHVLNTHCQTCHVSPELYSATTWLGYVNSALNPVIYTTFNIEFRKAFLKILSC

On to `C[C@H]1N=C(c2ccccc2F)c2cc(-c3ccccc3)ccc2-n2cnc(C(=O)N(C)C)c21` [Compound 5, (R)-6-(2′-Fluorophenyl)-N,N,4-trimethyl-8-phenyl-4H-benzo[f]imidazo[1,5-a][1,4]diazepine-3-carboxamide], for which, on BZP rat brain site, the inhibition constant Ki came out at 123 ± 22.3 nM. For the same compound, the “Binding Affinity BZR % Inhibition (Primary)” value in the assay with BZP rat brain site stood at 94.79 ± 1.08%. Moreover, the inhibition at 10 µM on Alpha1B was -15.3%; on Alpha1D, 3.57%; on D3, -3.57%; at M1, -1.6%.
With `C#Cc1ccc2c(c1)C(c1ccccc1Cl)=N[C@H](C)c1c(C(=O)NC)ncn1-2` [Compound 21, (R)-6-(2′-Chlorophenyl)-8-ethynyl-N,4-dimethyl-4H-benzo[f]imidazo[1,5-a][1,4]diazepine-3-carboxamide], at BZP rat brain site, the inhibitory constant (Ki) is 77.7 ± 2.93 nM. Moreover, the “Binding Affinity BZR % Inhibition (Primary)” value with BZP rat brain site amounted to 94.96 ± 2.06%. In addition, the inhibition at 10 µM at Alpha1B is -6.66%; on Alpha1D, -5.53%; on D3, 6.19%; on M1, -8.29%.
Consider `C#Cc1ccc2c(c1)C(c1ccccn1)=N[C@@H](C)c1c(C(=O)NC)ncn1-2` [Compound 23, (S)-8-Ethynyl-N,4-dimethyl-6-(pyridin-2′-yl)-4H-benzo[f]imidazo[1,5-a][1,4]diazepine-3-carboxamide], for which the Ki on BZP rat brain site worked out at 1300 ± 394 nM. The “Binding Affinity BZR % Inhibition (Primary)” value in the assay on BZP rat brain site stood at 52.97 ± 6.26%. For the same compound, the inhibition at 10 µM is 22.2% on Alpha1B, -6.54% on Alpha1D, 7.31% on D3 and -12% on M1.
For the compound `C#Cc1ccc2c(c1)C(c1ccccc1Cl)=N[C@H](C)c1c(C(=O)N(C)CC)ncn1-2` [Compound 29], the Ki at BZP rat brain site worked out at 394 ± 40.2 nM. Further, in the assay on BZP rat brain site, the “Binding Affinity BZR % Inhibition (Primary)” value was found to be 87.49 ± 2.75%. Further, the inhibition at 10 µM at Alpha1B is 19.8%; at Alpha1D it was -11.9%; at D3, 13%; at M1, 4.95%.
`C#Cc1ccc2c(c1)C(c1ccccn1)=N[C@@H](C)c1c(C(=O)N(C)C)ncn1-2` [Compound 31, (S)-8-Ethynyl-N,N,4-trimethyl-6-(pyridin-2′-yl)-4H-benzo[f]imidazo[1,5-a][1,4]diazepine-3-carboxamide]: the Ki on BZP rat brain site was 838 ± 107 nM. In the assay on BZP rat brain site, the “Binding Affinity BZR % Inhibition (Primary)” value was determined as 83.57 ± 1.57%. The inhibition at 10 µM on Alpha1B was 11%; on Alpha1D, -6.09%; at D3 it was 1.06%; at M1 it was -20%.
For `C#Cc1ccc2c(c1)C(c1ccccc1F)=N[C@H](C)c1c(C(=S)N(C)C)ncn1-2` [Compound 33, (R)-8-Ethynyl-6-(2′-fluorophenyl)-N,N,4-trimethyl-4H-benzo[f]imidazo[1,5-a][1,4]diazepine-3-carbothioamide], the Ki on BZP rat brain site was found to be 871 ± 8.72 nM. Besides, the “BZP Rat Brain Site, PDSP raw data, mean” value in the assay with BZP rat brain site is listed as 94.79%. Also, the inhibition at 10 µM was -15.3% at Alpha1B, 3.57% on Alpha1D, -3.57% at D3 and -1.6% on M1.
Regarding `CCc1noc(-c2ncn3c2[C@@H](C)N=C(c2ccccc2F)c2cc(-c4ccccc4)ccc2-3)n1` [Compound 35, (R)-3-Ethyl-5-(6-(2′-fluorophenyl)-4-methyl-8-phenyl-4H-benzo[f]imidazo[1,5-a][1,4]diazepin-3-yl)-1,2,4-oxadiazole], the “Binding Affinity BZR % Inhibition (Primary)” value with BZP rat brain site turned out to be 19.91 ± 7.21%. The inhibition at 10 µM on Alpha1B is 8.69%; at Alpha1D it was -0.4%; on D3, 16.2%; at M1 it was -1.63%.
Take `CCc1noc(-c2ncn3c2[C@@H](C)N=C(c2ccccc2F)c2cc(Cl)ccc2-3)n1` [Compound 36, (R)-5-(8-Chloro-6-(2′-fluorophenyl)-4-methyl-4H-benzo[f]imidazo[1,5-a][1,4]diazepin-3-yl)-3-ethyl-1,2,4-oxadiazole]: on BZP rat brain site, the inhibitory constant (Ki) was 590 ± 44.6 nM. Moreover, the “BZP Rat Brain Site, PDSP raw data, mean” value in the assay with BZP rat brain site came out at 81.81%. For the same compound, the inhibition at 10 µM on Alpha1B was -0.79%; at Alpha1D it was -14.3%; at D3, 4.97%; at M1, -0.27%.
As to `CC(C)c1noc(-c2ncn3c2[C@@H](C)N=C(c2ccccc2F)c2cc(Cl)ccc2-3)n1` [Compound 37, (R)-5-(8-Chloro-6-(2′-fluorophenyl)-4-methyl-4H-benzo[f]imidazo[1,5-a][1,4]diazepin-3-yl)-3-isopropyl-1,2,4-oxadiazole], in the assay on BZP rat brain site, the “BZP Rat Brain Site, PDSP raw data, mean” value is given as 74.07%. In addition, the inhibition at 10 µM at Alpha1B was 4.27%; at Alpha1D it was 4.09%; at D3 it was -0.7%; on M1, -0.48%.
For `C[C@H]1N=C(c2ccccc2F)c2cc(Cl)ccc2-n2cnc(-c3nc(C4CC4)no3)c21` [Compound 38, (R)-5-(8-Chloro-6-(2′-fluorophenyl)-4-methyl-4H-benzo[f]imidazo[1,5-a][1,4]diazepin-3-yl)-3-cyclopropyl-1,2,4-oxadiazole], in that order: 88.28%, 10.8%, -2.84%, -0.07% and -0.23%.
Turning to `CCc1noc(-c2ncn3c2CN=C(c2ccccc2F)c2cc(C4CC4)ccc2-3)n1` [Compound 44, 5-(8-Cyclopropyl-6-(2′-fluorophenyl)-4H-benzo[f]imidazo[1,5-a][1,4]diazepin-3-yl)-3-ethyl-1,2,4-oxadiazole], the Ki at BZP rat brain site was determined as 194 ± 62.7 nM. For the same compound, the “Binding Affinity BZR % Inhibition (Primary)” value in the assay on BZP rat brain site was 96.52 ± 2.57%. In addition, the inhibition at 10 µM at Alpha1B came out at 6.87%; at Alpha1D, 1.28%; at D3, 16.1%; on M1 it was 9.28%.
